How the values were obtained:
Surinam grass = test: Test E preemergence; type: in vivo, Brachiaria decumbens; conditions: 21 days, scale 0 to 100
Excerpt: (§1) Seeds of plant species selected from bermudagrass (Cynodon dactylon), Surinam grass (Brachiaria decumbens), crabgrass, large (large crabgrass, Digitaria sanguinalis), crabgrass, naked (naked crabgrass, Digitaria nuda), foxtail, green (green foxtail, Setaria viridis), johnsongrass (Sorghum halepense), kochia (Kochia scoparia), morningglory (pitted morningglory, Ipomoea lacunosa), nutsedge, purple (purple nutsedge, Cyperus rotundus), ragweed (common ragweed, Ambrosia elation), mustard, black (black mustard, Brassica nigra), guineagrass (Panicum maximum), dallisgrass (Paspalum dilatatum), barnyardgrass (Echinochloa crus-galli), sandbur (southern sandbur, Cenchrus echinatus), sowthistle (common sowthistle, Sonchus oleraceous), ryegrass, Italian (Italian ryegrass, Lolium multiflorum), signalgrass (broadleaf signalgrass, Brachiaria platyphylla), dayflower, VA (Virginia (VA) dayflower, Commelina virginica), bluegrass (annual bluegrass, Poa annua), quackgrass (Elytrigia repens), mallow (common mallow, Malva sylvestris), buckwheat, wild (wild buckwheat, Polygonum convolvulus), leafy spurge (Euphorbia esula), common chickweed (Stellaria media), wild poinsettia (Euphorbia heterophylla), pigweed, palmer (palmer pigweed, Amaranthus palmeri), and pigweed (redroot pigweed, Amaranthus retroflexus) were planted into a blend of loam soil and sand and treated preemergence with test chemicals formulated in a non-phytotoxic solvent mixture which included a surfactant.
(§2) Treated plants and controls were maintained in a greenhouse for 21 days, after which time all species were compared to controls and visually evaluated. Plant response ratings, summarized in Table E, are based on a scale of 0 to 100 where 0 is no effect and 100 is complete control. A dash (-) response means no test result.

ryegrass, Italian = test: Test E preemergence; type: in vivo, Lolium multiflorum; conditions: 21 days, scale 0 to 100
Excerpt: as §1, §2

quackgrass = test: Test E preemergence; type: in vivo, Elytrigia repens; conditions: 21 days, scale 0 to 100
Excerpt: as §1, §2

buckwheat, wild = test: Test E preemergence; type: in vivo, Polygonum convolvulus; conditions: 21 days, scale 0 to 100
Excerpt: as §1, §2

pigweed = test: Test E preemergence; type: in vivo, Amaranthus retroflexus; conditions: 21 days, scale 0 to 100
Excerpt: as §1, §2

wild poinsettia = test: Test F postemergence; type: in vivo, Euphorbia heterophylla; conditions: scale 0 to 100
Excerpt: (§3) Seeds of plant species selected from corn (Zea mays), soybean (Glycine max), velvetleaf (Abutilon theophrasti), lambsquarters (Chenopodium album), wild poinsettia (Euphorbia heterophylla), pigweed, palmer (palmer pigweed, Amaranthus palmeri), common waterhemp (Amaranthus rudis), surinam grass (Brachiaria decumbens), large crabgrass (Digitaria sanguinalis), crabgrass, Brazil (Brazilian crabgrass, Digitaria horizontalis), fall panicum (Panicum dichotomiflorum), giant foxtail (Setaria faberii), green foxtail (Setaria viridis), goosegrass (Eleusine indica), johnsongrass (Sorghum halepense), common ragweed (Ambrosia elation), barnyardgrass (Echinochloa crus-galli), southern sandbur (Cenchrus echinatus), arrowleaf sida (Sida rhombifolia), Italian ryegrass (Lolium multiflorum), dayflower, VA (Virginia (VA) dayflower, Commelina virginica), field bindweed (Convolvulus arvensis), cocklebur (common cocklebur, Xanthium strumarium), morningglory (Ipomoea coccinea), nightshade (eastern black nightshade, Solanum ptycanthum), kochia (Kochia scoparia), yellow nutsedge (Cyperus esculentus), and hairy beggarticks (Bidens pilosa), were planted into a silt loam soil and treated preemergence with test chemicals formulated in a non-phytotoxic solvent mixture which included a surfactant.
(§4) At the same time, plants from these crop and weed species and also horseweed (Canada horseweed, Conyza canadensis), smartweed (ladysthumb smartweed, Polygonum persicaria), waterhemp_RES1, (ALS & Triazine resistant common waterhemp, Amaranthus rudis), and waterhemp_RES2, (ALS & HPPD resistant common waterhemp, Amaranthus rudis) were treated with postemergence applications of test chemicals formulated in the same manner. Plants ranged in height from 2 to 18 cm for postemergence treatments (1- to 4-leaf stage). Treated plants and controls were maintained in a greenhouse for 14 to 21 days, after which time all species were compared to controls and visually evaluated. Plant response ratings, summarized in Table F, are based on a scale of 0 to 100 where 0 is no effect and 100 is complete control. A dash (-) response means no test result.

arrowleaf sida = test: Test F postemergence; type: in vivo, Sida rhombifolia; conditions: scale 0 to 100
Excerpt: as §3, §4

Italian ryegrass = test: Test F postemergence; type: in vivo, Lolium multiflorum; conditions: scale 0 to 100
Procedure, shortened: (§5)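 Plant response is scored by eye relative to controls on a 0 to 100 scale, where 100 means complete control. Preemergence applications were made to seeded silt loam; postemergence ones to seedlings 2 to 18 cm high. Greenhouse holding time was 14 to 21 days.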

field bindweed = test: Test F postemergence; type: in vivo, Convolvulus arvensis; conditions: scale 0 to 100
Procedure, shortened: as §5

CCc1cc(C(=O)NCC(F)(F)F)nn1Cc1ccnc(C(F)(F)F)c1 [Compound 78, 5-ethyl-N-(2,2,2-trifluoroethyl)-1-[[(2-trifluoromethyl)-4-pyridinyl]methyl]-1H-pyrazole-3-carboxamide]
Plant response rating, Surinam Grass (Surinam grass; 16 g ai/ha): 20
Plant response rating, Surinam Grass (Surinam grass; 31 g ai/ha): 80
Plant response rating, Surinam Grass (Surinam grass; 62 g ai/ha): 90
Plant response rating, Surinam Grass (Surinam grass; 125 g ai/ha): 90
Plant response rating, Surinam Grass (Surinam grass; 250 g ai/ha): 100
Plant response rating, Ryegrass, Italian (ryegrass, Italian; 16 g ai/ha): 10
Plant response rating, Ryegrass, Italian (ryegrass, Italian; 31 g ai/ha): 50
Plant response rating, Ryegrass, Italian (ryegrass, Italian; 62 g ai/ha): 90
Plant response rating, Ryegrass, Italian (ryegrass, Italian; 125 g ai/ha): 100
Plant response rating, Ryegrass, Italian (ryegrass, Italian; 250 g ai/ha): 100
Plant response rating, Quackgrass (quackgrass; 16 g ai/ha): 60
Plant response rating, Quackgrass (quackgrass; 31 g ai/ha): 95
Plant response rating, Quackgrass (quackgrass; 62 g ai/ha): 100
Plant response rating, Quackgrass (quackgrass; 125 g ai/ha): 100
Plant response rating, Quackgrass (quackgrass; 250 g ai/ha): 100
Plant response rating, Buckwheat, Wild (buckwheat, wild; 16 g ai/ha): 60
Plant response rating, Buckwheat, Wild (buckwheat, wild; 31 g ai/ha): 100
Plant response rating, Buckwheat, Wild (buckwheat, wild; 62 g ai/ha): 100
Plant response rating, Buckwheat, Wild (buckwheat, wild; 125 g ai/ha): 100
Plant response rating, Buckwheat, Wild (buckwheat, wild; 250 g ai/ha): 100
Plant response rating, Pigweed (pigweed; 16 g ai/ha): 100
Plant response rating, Pigweed (pigweed; 31 g ai/ha): 100
Plant response rating, Pigweed (pigweed; 62 g ai/ha): 100
Plant response rating, Pigweed (pigweed; 125 g ai/ha): 100
Plant response rating, Pigweed (pigweed; 250 g ai/ha): 100
Plant response rating, Wild Poinsettia (wild poinsettia; Postemergence, 31 g ai/ha): 25
Plant response rating, Wild Poinsettia (wild poinsettia; Postemergence, 125 g ai/ha): 70
Plant response rating, Wild Poinsettia (wild poinsettia; Postemergence, 250 g ai/ha): 80
Plant response rating, Wild Poinsettia (wild poinsettia; postemergence, 62 g ai/ha): 50
Plant response rating, Wild Poinsettia (wild poinsettia; postemergence, 500 g ai/ha): 90
Plant response rating, Arrowleaf Sida (arrowleaf sida; Postemergence, 31 g ai/ha): 50
Plant response rating, Arrowleaf Sida (arrowleaf sida; Postemergence, 125 g ai/ha): 75
Plant response rating, Arrowleaf Sida (arrowleaf sida; Postemergence, 250 g ai/ha): 80
Plant response rating, Arrowleaf Sida (arrowleaf sida; postemergence, 62 g ai/ha): 60
Plant response rating, Arrowleaf Sida (arrowleaf sida; postemergence, 500 g ai/ha): 95
Plant response rating, Italian Ryegrass (Italian ryegrass; Postemergence, 31 g ai/ha): 0
Plant response rating, Italian Ryegrass (Italian ryegrass; Postemergence, 125 g ai/ha): 40
Plant response rating, Italian Ryegrass (Italian ryegrass; Postemergence, 250 g ai/ha): 60
Plant response rating, Italian Ryegrass (Italian ryegrass; postemergence, 62 g ai/ha): 10
Plant response rating, Italian Ryegrass (Italian ryegrass; postemergence, 500 g ai/ha): 90
Plant response rating, Field Bindweed (field bindweed; Postemergence, 31 g ai/ha): 40
Plant response rating, Field Bindweed (field bindweed; Postemergence, 125 g ai/ha): 90
Plant response rating, Field Bindweed (field bindweed; Postemergence, 250 g ai/ha): 95
Plant response rating, Field Bindweed (field bindweed; postemergence, 62 g ai/ha): 70
Plant response rating, Field Bindweed (field bindweed; postemergence, 500 g ai/ha): 98
